pIC50: −log10 of the molar value.
Assays:
beagle dogs = assay: Tolerability / pilot toxicology in beagle dogs; format: in vivo; conditions: 150 and 200 mg/kg p.o., gelatine capsules over 5 weeks, olive oil week 6 to 8; substantially pure Z-isomeric form
pulmonary fibrosis = assay: Pulmonary fibrosis (bleomycin induced); format: in vivo, New Zealand white rabbits; conditions: ca. 2.5 to 60 mg/kg/day p.o.; substantially pure Z-isomeric form; vs placebo
Description: Testing is carried out in accordance with the general methodology described by G. J. Laurent et al. in Eur. J. Clin. Invest. (1981) 11, 441-448. Pulmonary fibrosis is induced in groups of 4 New Zealand white rabbits (aged 127 days at commencement of the experiment), each weighing 2.0-2.5 kg, by intratracheal instillation of 10 mg/kg bleomycin. The lungs of test animals are examined 2, 4 and 8 weeks later.

recombinant human IL-2 = assay: Recombinant human IL-2 induced mouse thymocyte proliferation; format: cell-based; conditions: 10 ng/ml rh IL-2
Description: (§1) Lymphocyte proliferation is the standard test for monokine activity. It is highly sensitive, though relatively unspecific, with IL-2, phorbol myristate acetate, concanavalin A' g-type-prostaglandin and indomethacin-nall effecting disturbance. Human monocyte culture media are prepared as described under I.I.b. above, diluted 1:10, 1:20 and 1:40 (v:v), and added to […] (obtained from C3H/HeJ mice) Dulbecco's modified Eagle's medium, containing 20 mM hydroxyethyl-piperazin-ethane-sulfonic acid, 12 mM NaHCO3, 2 mM glutamine, 2% foetal bovine serum, 10 μM 2-mercaptoethanol, […] and antibiotics. The cells are incubated for 2 days in 96-well culture plates and the proliferation rate determined using a ^3 H-thymidine pulse (1 μC/well) during the final 6 hours. The incorporated radioactivity is collected on filter paper and counted. […] Thus determined ED50 s for the compounds D2 and K1 each in substantially pure Z-isomeric form in a series of 2 separate experiments each with 3 parallel determinations are of the order of 30 μM
(§2) In order to rule out an antagonistic effect or a direct influence of the COMPOUNDS OF THE INVENTION on the proliferation of mouse thymocytes which are used above in the LAF-test, the effect of the COMPOUNDS OF THE INVENTION on the incorporation of ^3 H-thymidine Is determined after thymocyte stimulation with recombinant human IL-1 or IL-2.

[1] = system: psoriatic arthritis or seronegative spondylarthrosis or osteoarthrosis; assay: Clinical trial IV: degenerative joint disease; format: in vivo, human; conditions: ca. 200 to 1200 mg p.o./day, 8 weeks
Description: COMPOUND OF THE INVENTION, e.g. compound D2 or K1 in substantially pure Z-isomeric form, is administered at dosages of from ca. 200 to 1200 mg/p.o./day, once or in divided dosages up to 4×daily for 8 weeks. The subjects are examined at a regular interval of 2 weeks for disease progression on parameters such as pain sensation at the joints, evaluation of the functional capacity according to Steinbrocker, hand grip strength or Richtie Index.

human monocytes = assay: LAF-test (thymocyte proliferation), monokine production by human monocytes; format: cell-based; conditions: Monocyte, substantially pure Z-isomeric form, 2 separate experiments, 3 parallel determinations, read-out: ED50 (inhibition of monokine production)
Description: (§3) Mononuclear cells are obtained from the blood of healthy volunteers via centrifugation and cultivated on tissue culture dishes with test compound at varying concentrations [Schnyder et al., J. Immunol., 138, 496-503 (1987)]. The non-adherent lymphocytes are removed after 4 hours by washing several times. Fresh medium, test compound and lipopolysaccharide (LPS) as stimulant are added and the monocytes incubated for further 19 hours. The pooled culture media are diluted 1:10 (v:v) with fresh medium and added to confluent rabbit chondrocytes. MP activity in the chondrocyte culture medium is assayed after a further 2 days. COMPOUNDS OF THE INVENTION, in particular compounds D2 and K1, are active in suppressing monokine release in the above test method at concentrations of the order of from about 30 to about 100 μM. Thus determined ED50 S for the compounds D2 and K1 each in substantially pure Z-isomeric form in a series of 3 or 7 separate experiments each with 3 parallel determinations are, for both compounds, of the order of 60 to 100 μM.
Lymphocyte proliferation is the standard test for monokine activity. […] The cells are incubated for 2 days in 96-well culture plates and the proliferation rate determined using a ^3 H-thymidine pulse (1 μC/well) during the final 6 hours. The incorporated radioactivity is collected on filter paper and counted. […]

IL-1β = assay: RIA-Kit IL-1 quantification in human monocyte cultures; format: cell-based
Description: as §3
The procedures of example 1.1.b. above are repeated and IL-1 concentrations in recovered, undiluted culture medium determined employing a CISTRON IL-1 radioimmuno assay kit (the CISTRON kit is obtainable from Cistron, 10, Bloomfield Avenue, P.O. Box 2004, Pine Brook, NJ 07 058 USA. It is IL-1β specific and recognises both intra- and extra-cellular material).

IL-1 = IL-1 induced secretion of metalloproteinase (MP) in chondrocytes; format: cell-based; conditions: 2 days incubation
Description: Furthermore the influence on IL-1 induced secretion of MP is determined using chondrocytes as a target system for IL-1. IL-1 (Genzyme Corporation,USA) is added with or without a COMPOUND OF THE INVENTION or Dexamethasone (control) to chondrocytes and the activity or metalloproteinase is determined in the supernatant media of 2 days incubation period.

recombinant human IL-1 = assay: Recombinant human IL-1 induced mouse thymocyte proliferation; format: cell-based; conditions: 75 ng/ml rh IL-1
Description: as §1, §2

periodontal disease = assay: Clinical trial III: calcium resorption - periodontal disease; format: in vivo, human; conditions: ca. 400 to 1200 mg p.o./day or injection ca. 0.5 or 1.0 to 5.0 mg per gum pouch; after ca. 2 to 3 weeks
Description: COMPOUND OF THE INVENTION, e.g. compound D2 or K1 in substantially pure Z-isomeric form, is administered at dosages of from ca. 400 to 1200 mg/p.o./day administered once or in divided dosages up to 4x daily, or by injection into the gum at the site of disease at dosages of the order of about 0.5 or 1.0 to about 5.0 mg into each gum pouch. The subjects are examined at regular weekly or 2x weekly intervals for disease progression.

[2] = 3H-thymidine incorporation, mouse thymocytes
[3] = CISTRON IL-1 radioimmuno assay, human monocytes

**Q.** Which pathological effects (beagle dogs) does the source give for `COC1=Cc2ccccc2/C(=C/C(=O)O)c2cc(Cl)sc21` [Compound K1, [2-Chloro-10-methoxy-4H-benzo[4,5]cyclohepta[1,2-b]thiophen-4-ylidene]-acetic acid] here?
**A.** no pathological effects are observed

**Q.** What about the pulmonary fibrosis (pulmonary fibrosis) of the same molecule?
**A.** substantial reduction of pulmonary fibrosis

**Q.** What about the “concentration dependency of influence on rh IL-2 induced proliferation” value (recombinant human IL-2) of the same molecule?
**A.** no concentration dependency is detectable

**Q.** What about the “influence on recombinant human IL-2 induced proliferation” value (recombinant human IL-2; [2]) of the same molecule?
**A.** no significant influence

**Q.** What about the “condition (degenerative joint disease)” value [1] of the same molecule?
**A.** improvement in condition after the 8 week treatment period

**Q.** And the pIC50 (human monocytes)?
**A.** ~4.52

**Q.** And the “extra-cellular IL-1 level” value (IL-1β; [3])?
**A.** extra-cellular content is reduced significantly

**Q.** And the “intracellular IL-1 level” value (IL-1β; [3])?
**A.** remain substantially unaffected

**Q.** What about the pIC50 (IL-1β; Homo sapiens, Monocyte, 19 h, substantially pure Z-isomeric form, 2-8 experiments, 3 parallel determinations, read-out: ED50 for extra-cellular IL-1 level suppression) of the same molecule?
**A.** ~4.60

**Q.** What about the “influence on IL-1 induced secretion of MP” value (IL-1) of the same molecule?
**A.** do not influence the IL-1 induced secretion of MP

**Q.** And the “concentration dependency of influence on rh IL-1 induced proliferation” value (recombinant human IL-1)?
**A.** no concentration dependency is detectable

**Q.** What about the “influence on recombinant human IL-1 induced proliferation” value (recombinant human IL-1; [2]) of the same molecule?
**A.** no significant influence

**Q.** What about the “condition (periodontal disease)” value (periodontal disease) of the same molecule?
**A.** marked improvement in condition after ca. 2 to 3 weeks continuous therapy

— patent US4956381A, “Treating tissue calcium depletion or degenerative processes in bone or cartilage” (Sandoz Ltd., priority 1987, dated 1990)
